# Reference: patent US20080293795A1, “COMBINATION THERAPY WITH PARP INHIBITORS” (ABBOTT LABORATORIES, priority 2006, published 2008)
# Biological target: T1, Recombinant Human Poly(ADP-Ribose) Polymerase (PARP) (Homo sapiens, UniProt P09874)
# T1 construct: purchased Trevigen, Gaithersburg, Md; host or cells: E. coli
# Experiment: PARP1 inhibition assay ([3H]-NAD+, biotinylated histone H1, FlashPlate/SPA)
# Type: biochemical
# Conditions: from inhibition curves at various substrate concentrations
# Method: Nicotinamide[2,5′,8-3H]adenine dinucleotide and strepavidin SPA beads were purchased from Amersham Biosiences (UK) Recombinant Human Poly(ADP-Ribose) Polymerase (PARP) purified from E. coli and 6-Biotin-17-NAD^+, were purchase from Trevigen, Gaithersburg, Md. NAD^+, Histone, aminobenzamide, 3-amino benzamide and Calf Thymus DNA (dcDNA) were purchased from Sigma, St. Louis, Mo. […] Biotinylated histone H1 was prepared by treating the protein with Sulfo-NHS-LC-Biotin from Pierce Rockford, Ill. […] Streptavidin coated (FlashPlate Plus) microplates were purchased from Perkin Elmer, Boston, Mass.
# PARP1 assay was conducted in PARP assay buffer containing 50 mM Tris pH 8.0, 1 mM DTT, 4 mM MgCl2. […] 170 μl of the stopped reaction mixtures were transferred to streptavidin Flash Plates, incubated for 1 hr, and counted using a TopCount microplate scintillation counter.
# T1 sequence (P09874 whole entry): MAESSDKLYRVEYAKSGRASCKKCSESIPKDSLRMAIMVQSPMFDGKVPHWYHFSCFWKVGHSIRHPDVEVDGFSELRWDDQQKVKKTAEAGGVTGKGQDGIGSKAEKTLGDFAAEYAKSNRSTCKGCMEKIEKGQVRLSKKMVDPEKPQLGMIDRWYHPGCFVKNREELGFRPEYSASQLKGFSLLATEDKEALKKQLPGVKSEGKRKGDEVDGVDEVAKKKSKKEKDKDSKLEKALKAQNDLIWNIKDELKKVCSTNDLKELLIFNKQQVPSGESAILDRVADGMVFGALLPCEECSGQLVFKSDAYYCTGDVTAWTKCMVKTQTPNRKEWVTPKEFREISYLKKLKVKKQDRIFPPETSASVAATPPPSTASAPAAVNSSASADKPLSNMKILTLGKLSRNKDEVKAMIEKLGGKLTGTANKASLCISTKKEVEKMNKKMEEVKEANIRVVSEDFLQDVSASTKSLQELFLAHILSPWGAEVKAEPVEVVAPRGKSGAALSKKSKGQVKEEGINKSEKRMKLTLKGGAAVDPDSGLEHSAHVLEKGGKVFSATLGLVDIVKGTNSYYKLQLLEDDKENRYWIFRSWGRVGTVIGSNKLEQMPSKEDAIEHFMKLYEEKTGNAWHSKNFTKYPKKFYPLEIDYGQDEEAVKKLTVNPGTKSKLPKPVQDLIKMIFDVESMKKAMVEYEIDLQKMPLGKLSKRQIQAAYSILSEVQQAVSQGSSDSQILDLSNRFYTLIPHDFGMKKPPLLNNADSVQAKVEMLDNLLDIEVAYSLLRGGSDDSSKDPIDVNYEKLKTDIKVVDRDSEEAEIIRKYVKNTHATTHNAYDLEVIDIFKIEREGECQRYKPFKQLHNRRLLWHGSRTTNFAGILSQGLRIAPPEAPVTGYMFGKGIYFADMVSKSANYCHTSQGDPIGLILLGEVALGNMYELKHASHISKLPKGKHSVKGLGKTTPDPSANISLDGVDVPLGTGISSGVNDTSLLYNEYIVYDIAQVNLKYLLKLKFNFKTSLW
row,Structure (SMILES),Ki
1,CC1(c2nc3c(C(N)=O)cccc3[nH]2)CCN1C1CCC1 (centres unmarked) [2-(1-cyclobutyl-2-methylazetidin-2-yl)-1H-benzimidazole-4-carboxamide],33.3 nM
2,CC1(c2nc3c(C(N)=O)cccc3[nH]2)CN(C2CCC2)C1 [2-(1-cyclobutyl-3-methylazetidin-3-yl)-1H-benzimidazole-4-carboxamide],6.1 nM
3,CC1(c2nc3c(C(N)=O)cccc3[nH]2)CCN(C2CCC2)C1 (centres unmarked) [2-(1-cyclobutyl-3-methylpyrrolidin-3-yl)-1H-benzimidazole-4-carboxamide],4 nM
4,CC1(c2nc3c(C(N)=O)cccc3[nH]2)CCN(C2CCC2)CC1 [2-(1-cyclobutyl-4-methylpiperidin-4-yl)-1H-benzimidazole-4-carboxamide],9.2 nM
5,NC(=O)c1cccc2[nH]c(C3CCN3C3CCC3)nc12 (centres unmarked) [2-(1-cyclobutylazetidin-2-yl)-1H-benzimidazole-4-carboxamide],80 nM
6,NC(=O)c1cccc2[nH]c(C3CN(C4CCC4)C3)nc12 [2-(1-cyclobutylazetidin-3-yl)-1H-benzimidazole-4-carboxamide],16.4 nM
7,NC(=O)c1cccc2[nH]c(C3CCN(C4CCC4)CC3)nc12 [2-(1-cyclobutylpiperidin-4-yl)-1H-benzimidazole-4-carboxamide],6.3 nM
8,NC(=O)c1cccc2[nH]c(C3CCN(C4CCC4)C3)nc12 (centres unmarked) [2-(1-cyclobutylpyrrolidin-3-yl)-1H-benzimidazole-4-carboxamide],6.8 nM
9,CC1(c2nc3c(C(N)=O)cccc3[nH]2)CCN1C1CCCCC1 (centres unmarked) [2-(1-cyclohexyl-2-methylazetidin-2-yl)-1H-benzimidazole-4-carboxamide],27.7 nM
10,CC1(c2nc3c(C(N)=O)cccc3[nH]2)CN(C2CCCCC2)C1 [2-(1-cyclohexyl-3-methylazetidin-3-yl)-1H-benzimidazole-4-carboxamide],5.6 nM
11,CC1(c2nc3c(C(N)=O)cccc3[nH]2)CCN(C2CCCCC2)C1 (centres unmarked) [2-(1-cyclohexyl-3-methylpyrrolidin-3-yl)-1H-benzimidazole-4-carboxamide],5.8 nM
12,CC1(c2nc3c(C(N)=O)cccc3[nH]2)CCCN(C2CCCCC2)CC1 (centres unmarked) [2-(1-cyclohexyl-4-methylazepan-4-yl)-1H-benzimidazole-4-carboxamide],11.9 nM
13,NC(=O)c1cccc2[nH]c(C3CCCN(C4CCCCC4)CC3)nc12 (centres unmarked) [2-(1-cyclohexylazepan-4-yl)-1H-benzimidazole-4-carboxamide],4.8 nM
14,NC(=O)c1cccc2[nH]c(C3CCN3C3CCCCC3)nc12 (centres unmarked) [2-(1-cyclohexylazetidin-2-yl)-1H-benzimidazole-4-carboxamide],245 nM
15,NC(=O)c1cccc2[nH]c(C3CN(C4CCCCC4)C3)nc12 [2-(1-cyclohexylazetidin-3-yl)-1H-benzimidazole-4-carboxamide],16 nM
16,NC(=O)c1cccc2[nH]c(C3CCN(C4CCCCC4)C3)nc12 (centres unmarked) [2-(1-cyclohexylpyrrolidin-3-yl)-1H-benzimidazole-4-carboxamide],7 nM
17,CC1(c2nc3c(C(N)=O)cccc3[nH]2)CCN1C1CCCC1 (centres unmarked) [2-(1-cyclopentyl-2-methylazetidin-2-yl)-1H-benzimidazole-4-carboxamide],31.1 nM
18,CC1(c2nc3c(C(N)=O)cccc3[nH]2)CN(C2CCCC2)C1 [2-(1-cyclopentyl-3-methylazetidin-3-yl)-1H-benzimidazole-4-carboxamide],4 nM
19,CC1(c2nc3c(C(N)=O)cccc3[nH]2)CCN(C2CCCC2)C1 (centres unmarked) [2-(1-cyclopentyl-3-methylpyrrolidin-3-yl)-1H-benzimidazole-4-carboxamide],3.4 nM
20,CCN1CCCC1(C)c1nc2c(C(N)=O)cccc2[nH]1 (centres unmarked) [2-(1-ethyl-2-methylpyrrolidin-2-yl)-1H-benzimidazole-4-carboxamide],6 nM
21,CC(C)CN1CC(C)(c2nc3c(C(N)=O)cccc3[nH]2)C1 [2-(1-isobutyl-3-methylazetidin-3-yl)-1H-benzimidazole-4-carboxamide],5.6 nM
22,CC(C)CN1CCC(C)(c2nc3c(C(N)=O)cccc3[nH]2)C1 (centres unmarked) [2-(1-isobutyl-3-methylpyrrolidin-3-yl)-1H-benzimidazole-4-carboxamide],3.8 nM
23,CC(C)CN1CC(c2nc3c(C(N)=O)cccc3[nH]2)C1 [2-(1-isobutylazetidin-3-yl)-1H-benzimidazole-4-carboxamide],14.4 nM
24,CC(C)CN1CCC(c2nc3c(C(N)=O)cccc3[nH]2)C1 (centres unmarked) [2-(1-isobutylpyrrolidin-3-yl)-1H-benzimidazole-4-carboxamide],7.4 nM
25,CC(C)N1CCC1c1nc2c(C(N)=O)cccc2[nH]1 (centres unmarked) [2-(1-isopropylazetidin-2-yl)-1H-benzimidazole-4-carboxamide],118 nM
26,CC(C)N1CCC(c2nc3c(C(N)=O)cccc3[nH]2)CC1 [2-(1-isopropylpiperidin-4-yl)-1H-benzimidazole-4-carboxamide],6 nM
27,CCCN1CC(c2nc3c(C(N)=O)cccc3[nH]2)C1 [2-(1-propylazetidin-3-yl)-1H-benzimidazole-4-carboxamide],14.1 nM

row,Structure (SMILES),Ki
1,CCCN1CCC(c2nc3c(C(N)=O)cccc3[nH]2)C1 (centres unmarked) [2-(1-propylpyrrolidin-3-yl)-1H-benzimidazole-4-carboxamide],8.1 nM
2,NC(=O)c1cccc2[nH]c(C3CN(C4CCOCC4)C3)nc12 [2-(1-tetrahydro-2H-pyran-4-ylazetidin-3-yl)-1H-benzimidazole-4-carboxamide],45.6 nM
3,NC(=O)c1cccc2[nH]c(C3CCN(C4CCOCC4)C3)nc12 (centres unmarked) [2-(1-tetrahydro-2H-pyran-4-ylpyrrolidin-3-yl)-1H-benzimidazole-4-carboxamide],8.2 nM
4,CCCN1CCCC1(C)c1nc2c(C(N)=O)cccc2[nH]1 (centres unmarked) [2-(2-methyl-1-propylpyrrolidin-2-yl)-1H-benzimidazole-4-carboxamide],18.7 nM
5,CCCN1CC(C)(c2nc3c(C(N)=O)cccc3[nH]2)C1 [2-(3-methyl-1-propylazetidin-3-yl)-1H-benzimidazole-4-carboxamide],6.9 nM
6,CCCN1CCC(C)(c2nc3c(C(N)=O)cccc3[nH]2)C1 (centres unmarked) [2-(3-methyl-1-propylpyrrolidin-3-yl)-1H-benzimidazole-4-carboxamide],4.2 nM
7,CC1(c2nc3c(C(N)=O)cccc3[nH]2)CN(C2CCOCC2)C1 [2-(3-methyl-1-tetrahydro-2H-pyran-4-ylazetidin-3-yl)-1H-benzimidazole-4-carboxamide],12.7 nM
8,CC1(c2nc3c(C(N)=O)cccc3[nH]2)CCN(C2CCOCC2)C1 (centres unmarked) [2-(3-methyl-1-tetrahydro-2H-pyran-4-ylpyrrolidin-3-yl)-1H-benzimidazole-4-carboxamide],7.2 nM
9,CCCN1CCC(C)(c2nc3c(C(N)=O)cccc3[nH]2)CC1 [2-(4-methyl-1-propylpiperidin-4-yl)-1H-benzimidazole-4-carboxamide],13.5 nM
10,CC(CCc1ccccc1)N1CCC(c2nc3c(C(N)=O)cccc3[nH]2)C1 (centres unmarked) [2-[1-(1-methyl-3-phenylpropyl)pyrrolidin-3-yl]-1H-benzimidazole-4-carboxamide],13.2 nM
11,CC1(c2nc3c(C(N)=O)cccc3[nH]2)CN(CC2CC2)C1 [2-[1-(cyclopropylmethyl)-3-methylazetidin-3-yl]-1H-benzimidazole-4-carboxamide],8 nM
12,CC1(c2nc3c(C(N)=O)cccc3[nH]2)CCN(CC2CC2)C1 (centres unmarked) [2-[1-(cyclopropylmethyl)-3-methylpyrrolidin-3-yl]-1H-benzimidazole-4-carboxamide],5 nM
13,NC(=O)c1cccc2[nH]c(C3CN(CC4CC4)C3)nc12 [2-[1-(cyclopropylmethyl)azetidin-3-yl]-1H-benzimidazole-4-carboxamide],19 nM
14,NC(=O)c1cccc2[nH]c(C3CCN(CC4CC4)C3)nc12 (centres unmarked) [2-[1-(cyclopropylmethyl)pyrrolidin-3-yl]-1H-benzimidazole-4-carboxamide],5.2 nM
15,NC(=O)c1cccc2[nH]c(C3CCN(Cc4ccncc4)C3)nc12 (centres unmarked) [2-[1-(pyridin-4-ylmethyl)pyrrolidin-3-yl]-1H-benzimidazole-4-carboxamide],14.2 nM
16,CC(CCc1ccccc1)N1CCC(C)(c2nc3c(C(N)=O)cccc3[nH]2)C1 (centres unmarked) [2-[3-methyl-1-(1-methyl-3-phenylpropyl)pyrrolidin-3-yl]-1H-benzimidazole-4-carboxamide],12 nM
17,CC1(c2nc3c(C(N)=O)cccc3[nH]2)CCN(Cc2ccncc2)C1 (centres unmarked) [2-[3-methyl-1-(pyridin-4-ylmethyl)pyrrolidin-3-yl]-1H-benzimidazole-4-carboxamide],8.9 nM
18,NC(=O)c1cccc2[nH]c([C@H]3CCCN3C3CCC3)nc12 [2-[(2R)-1-cyclobutylpyrrolidin-2-yl]-1H-benzimidazole-4-carboxamide],142 nM
19,CC(C)N1CCC[C@@H]1c1nc2cccc(C(N)=O)c2[nH]1 [2-[(2R)-1-isopropylpyrrolidin-2-yl]-1H-benzimidazole-4-carboxamide],12.8 nM
20,CCCN1CCC[C@@H]1c1nc2c(C(N)=O)cccc2[nH]1 [2-[(2R)-1-propylpyrrolidin-2-yl]-1H-benzimidazole-4-carboxamide],146 nM
21,NC(=O)c1cccc2[nH]c([C@@H]3CCCN3C3CCC3)nc12 [2-[(2S)-1-cyclobutylpyrrolidin-2-yl]-1H-benzimidazole-4-carboxamide],338 nM
22,CCN1CCC[C@H]1c1nc2c(C(N)=O)cccc2[nH]1 [2-[(2S)-1-ethylpyrrolidin-2-yl]-1H-benzimidazole-4-carboxamide],49 nM
23,CC(C)N1CCC[C@H]1c1nc2c(C(N)=O)cccc2[nH]1 [2-[(2S)-1-isopropylpyrrolidin-2-yl]-1H-benzimidazole-4-carboxamide],19.3 nM
24,CCCN1CCC[C@H]1c1nc2c(C(N)=O)cccc2[nH]1 [2-[(2S)-1-propylpyrrolidin-2-yl]-1H-benzimidazole-4-carboxamide],129 nM
25,CN(C)S(=O)(=O)N1CC(C)(c2nc3c(C(N)=O)cccc3[nH]2)C1 [2-{1-[(dimethylamino)sulfonyl]-3-methylazetidin-3-yl}-1H-benzimidazole-4-carboxamide],7 nM
26,CN(C)S(=O)(=O)N1CCC(C)(c2nc3c(C(N)=O)cccc3[nH]2)CC1 [2-{1-[(dimethylamino)sulfonyl]-4-methylpiperidin-4-yl}-1H-benzimidazole-4-carboxamide],8.8 nM
